What was measured:
[1] = test system: unfractionated heparin (UFH); test: aPTT clotting assay, UFH 0.2 U/mL in plasma (Example 7); type: biochemical; details: UFH 0.2 U/mL in plasma
Procedure: aPTT clotting Assay. Unfractionated heparin was mixed with plasma at a final concentration of 0.2 U/mL. […] The ACL Elite Hemostasis analyzer (Beckman Coulter™) was used to add aPTT reagent (HemosIL SynthASil) to supplemented plasma. Clotting was initiated by addition of CaCl2 and time to clot was recorded.

enoxaparin (ENOX) = test: FXa chromogenic assay (absence of plasma), enoxaparin; details: enoxaparin 0.1 μg/mL, absence of plasma
fondaparinux (FONDAPX) = test: FXa chromogenic assay (absence of plasma), fondaparinux; details: fondaparinux 0.02 μg/mL, absence of plasma

| SMILES | UFH (aPTT) EC50 [1] [µg/mL] | ENOX (FXa) EC50 (enoxaparin (ENOX)) [µg/mL] | FONDAPX (FXa) EC50 (fondaparinux (FONDAPX)) |
| --- | --- | --- | --- |
| COc1ccc(NC(=O)[C@H](CCCCN)NC(=O)c2cc(NC(=O)[C@@H](N)CCCCN)ccc2OC)cc1C(=O)N[C@@H](CCCCN)C(=O)Nc1ccc(OC)c(C(=O)N[C@@H](CCCCN)C(=O)Nc2ccc(OC)c(C(=O)N[C@H](Cc3ccccc3)C(=O)O)c2)c1 [Compound 111] | 2.54 | 1.348 | >20 µg/mL |
| COc1ccc(NC(=O)[C@H](CCCCN)NC(=O)c2cc(NC(=O)[C@H](CCCCN)NC(=O)c3cc(NC(=O)[C@H](CCCCN)NC(=O)c4cc(NC(=O)[C@@H](N)CCCCN)ccc4OC)ccc3OC)ccc2OC)cc1C(=O)N[C@@H](Cc1ccc(O)cc1)C(=O)O [Compound 112] | 2.71 | 0.257 | 0.717 µg/mL |
| COc1ccc(NC(=O)[C@H](CCCCN)NC(=O)c2cc(NC(=O)[C@H](CCCCN)NC(=O)c3cc(NC(=O)[C@H](CCCCN)NC(=O)c4cc(NC(=O)[C@@H](N)CCCCN)ccc4OC)ccc3OC)ccc2OC)cc1C(=O)N[C@@H](Cc1c[nH]c2ccccc12)C(=O)O [Compound 113] | 4.89 | 0.2306 | 0.4025 µg/mL |
| COc1ccc(NC(=O)[C@H](CCCCN)NC(=O)c2cc(NC(=O)[C@@H](N)CCCCN)ccc2OC)cc1C(=O)N[C@@H](CCCCN)C(=O)Nc1ccc(OC)c(C(=O)N[C@@H](CCCCN)C(=O)Nc2ccc(OC)c(C(=O)N[C@H](C(=O)O)C(C)C)c2)c1 [Compound 114] | 3.00 | 0.9758 | 12.56 µg/mL |
| COC(=O)c1cc(NC(=O)[C@H](CCCCN)NC(=O)c2cc(NC(=O)[C@H](CCCCN)NC(=O)c3cc(NC(=O)[C@H](CCCCN)NC(=O)c4cc(NC(=O)[C@@H](N)CCCCN)ccc4OC)ccc3OC)ccc2OC)ccc1OC [Compound 115] | 2.44 | 0.7967 | >20 µg/mL |
| COc1ccc(NC(=O)[C@H](CCCCN)NC(=O)c2cc(NC(=O)[C@H](CCCCN)NC(=O)c3cc(NC(=O)[C@H](CCCCN)NC(=O)c4cc(NC(=O)[C@@H](N)CCCCN)ccc4OC)ccc3OC)ccc2OCC(=O)O)cc1C(N)=O [Compound 117] | 1.94 | 0.9281 | 7.052 µg/mL |
| COc1ccc(NC(=O)[C@H](CCCCN)NC(=O)c2cc(NC(=O)[C@H](CCCCN)NC(=O)c3cc(NC(=O)[C@H](CCCCN)NC(=O)c4cc(NC(=O)[C@@H](N)CCCCN)ccc4OCC(=O)O)ccc3OC)ccc2OC)cc1C(N)=O [Compound 119] | 11.56 | 0.9421 | 13.39 µg/mL |
| COc1ccc(NC(=O)[C@H](CCCNC(=N)N)NC(=O)c2cc(NC(=O)[C@H](CCCNC(=N)N)NC(=O)c3cc(NC(=O)[C@H](C)NC(=O)CCCCNC(=N)N)ccc3OC)ccc2OC)cc1C(N)=O [Compound 120] | 9.62 | 1.36 | 5.96 µg/mL |
| [2H]C([2H])(CN)C([2H])([2H])C[C@H](N)C(=O)Nc1ccc(OC)c(C(=O)N[C@@H](CCCCN)C(=O)Nc2ccc(OC)c(C(=O)N[C@@H](CCCCN)C(=O)Nc3ccc(OC)c(C(=O)N[C@@H](CCCCN)C(=O)Nc4ccc(OC)c(C(N)=O)c4)c3)c2)c1 [Compound 121] | 7.48 | 0.4289 | 8.293 µg/mL |
| COc1ccc(NC(=O)[C@H](CCCCN)NC(=O)c2cc(NC(=O)[C@H](CCCCN)NC(=O)c3cc(NC(=O)[C@H](CCCCN)NC(=O)c4cc(NC(=O)[C@H](N)CCCCN)ccc4OC)ccc3OC)ccc2OC)cc1C(N)=O [Compound 122] | 3.91 | 0.3254 | 6.037 µg/mL |
| COc1ccc(NC(=O)[C@H](CCCNC(=N)N)NC(=O)c2cc(NC(=O)[C@@H](N)CCCNC(=N)N)ccc2OC)cc1C(=O)N[C@@H](CCCNC(=N)N)C(=O)Nc1ccc(OC)c(C(=O)N[C@@H](CCCNC(=N)N)C(=O)Nc2ccc(OC)c(C(=O)N3CCCC3C(N)=O)c2)c1 (stereo partly drawn) [Compound 123] | >10 | 1.934 | inactive |
| COc1ccc(NC(=O)[C@H](CCCCN)NC(=O)c2cc(NC(=O)[C@H](CCCCN)NC(=O)c3cc(NC(=O)[C@H](CCCCN)NC(=O)c4cc(NC(=O)[C@@H](N)CCCCN)cc(C(F)(F)F)c4)ccc3OC)ccc2OC)cc1C(N)=O [Compound 124] | 7.39 | 0.418 | 6.94 µg/mL |
| COc1ccc(NC(=O)[C@H](CCCCN)NC(=O)c2cc(NC(=O)[C@H](CCCCN)NC(=O)c3cc(NC(=O)[C@H](CCCCN)NC(=O)c4cc(N)cc(C(F)(F)F)c4)ccc3OC)ccc2OC)cc1C(N)=O [Compound 125] | >10 | 0.9448 | 3.114 µg/mL |
| COc1ccc(NC(=O)[C@H](CCCCN)NC(=O)c2cc(NC(=O)[C@H](CCCCN)NC(=O)c3cc(NC(=O)[C@H](CCCCN)NC(=O)c4ccc(NC(=O)[C@@H](N)CCCCN)cc4)ccc3OC)ccc2OC)cc1C(N)=O [Compound 126] | 9.07 | 0.7187 | >20 µg/mL |
| COc1ccc(NC(=O)[C@H](CCCCN)NC(=O)c2cc(NC(=O)[C@H](CCCCN)NC(=O)c3cc(NC(=O)[C@H](CCCCN)NC(=O)c4cccc(N(C)C(=O)[C@@H](N)CCCCN)c4)ccc3OC)ccc2OC)cc1C(N)=O [Compound 127] | 2.33 | >15 | inactive |
| CNc1cccc(C(=O)N[C@@H](CCCCN)C(=O)Nc2ccc(OC)c(C(=O)N[C@@H](CCCCN)C(=O)Nc3ccc(OC)c(C(=O)N[C@@H](CCCCN)C(=O)Nc4ccc(OC)c(C(N)=O)c4)c3)c2)c1 [Compound 128] | 4.17 | 1.651 | 8.495 µg/mL |
| COc1ccc(NC(=O)[C@H](CCCCN)NC(=O)c2cc(NC(=O)[C@H](CCCCN)NC(=O)c3cc(NC(=O)[C@H](CCCCN)NC(=O)c4ccc(NC(=O)[C@@H](N)CCCCN)cc4OC)ccc3OC)ccc2OC)cc1C(N)=O [Compound 129] | 2.47 | 0.3888 | 7.996 µg/mL |
| COc1ccc(NC(=O)[C@H](CCCCN)NC(=O)c2cc(NC(=O)[C@H](CCCCN)NC(=O)c3cc(NC(=O)[C@H](CCCCN)NC(=O)c4cc(NC(=O)[C@@H](N)CCCCN)ccc4SC)ccc3OC)ccc2OC)cc1C(N)=O [Compound 130] | 2.50 | 0.3835 | 5.47 µg/mL |
| COc1ccc(NC(=O)[C@H](CCCCN)NC(=O)c2cc(NC(=O)[C@H](CCCCN)NC(=O)c3cc(NC(=O)[C@H](CCCCN)NC(=O)c4cnc(N)s4)ccc3OC)ccc2OC)cc1C(N)=O [Compound 131] | 3.68 | 4.499 | >20 µg/mL |
| COc1ccc(NC(=O)[C@H](CCCCN)NC(=O)c2cc(NC(=O)[C@H](CCCCN)NC(=O)c3cc(NC(=O)[C@H](CCCCN)NC(=O)c4cc(NC(=O)[C@@H](N)CCCCN)ccc4OC)ccc3SC)ccc2OC)cc1C(N)=O [Compound 132] | >10 | >20 | inactive |
| COc1ccc(NC(=O)[C@H](CCCCN)NC(=O)c2cc(NC(=O)[C@H](CCCCN)NC(=O)c3cc(NC(=O)[C@H](CCCCN)NC(=O)c4cc(NC(=O)[C@@H](N)CCCCN)ccc4OC)ccc3OC)ccc2SC)cc1C(N)=O [Compound 133] | >10 | >20 | inactive |
| COc1ccc(NC(=O)[C@H](CCCCN)NC(=O)c2cc(NC(=O)[C@@H](N)CCCCN)ccc2OC)cc1C(=O)N[C@@H](CCCCN)C(=O)Nc1ccc(OC)c(C(=O)N[C@@H](CCCCN)C(=O)Nc2ccc(SC)c(C(N)=O)c2)c1 [Compound 134] | 2.84 | 1.829 | inactive |
| COc1ccc(NC(=O)[C@@H](CCCNC(=N)N)NC(=O)c2cc(NC(=O)[C@@H](CCCNC(=N)N)NC(=O)c3cc(NC(=O)[C@@H](CCCNC(=N)N)NC(=O)c4cc(NC(=O)[C@H](N)CCCNC(=N)N)ccc4OC)ccc3OC)ccc2OC)cc1C(N)=O [Compound 135] | 2.79 | 0.1581 | 0.7596 µg/mL |
| COc1ccc(NC(=O)[C@@H](CCCNC(=N)N)NC(=O)c2cc(NC(=O)[C@@H](CCCNC(=N)N)NC(=O)c3cc(NC(=O)[C@@H](CCCNC(=N)N)NC(=O)c4cc(NC(=O)[C@H](N)CCCNC(=N)N)ccc4OC)ccc3OC)ccc2OC)cc1C(N)=O [Compound 136] | 2.91 | 0.194 | 0.8018 µg/mL |
| COc1ccc(NC(=O)[C@H](CCCCN)NC(=O)c2cc(NC(=O)[C@H](CCCCN)NC(=O)c3cc(NC(=O)[C@H](CCCCN)NC(=O)c4cc(NC(=O)[C@@H](N)CCCNC(N)=O)ccc4OC)ccc3OC)ccc2OC)cc1C(N)=O [Compound 137] | 2.00 | 0.3761 | 4.025 µg/mL |
| COc1ccc(NC(=O)[C@H](CCCCN)NC(=O)c2cc(NC(=O)[C@H](CCCCN)NC(=O)c3cc(NC(=O)[C@H](CCCNC(N)=O)NC(=O)c4cc(NC(=O)[C@@H](N)CCCCN)ccc4OC)ccc3OC)ccc2OC)cc1C(N)=O [Compound 138] | 2.15 | 0.3298 | 2.332 µg/mL |

Reference: patent US20110178104A1, “Anti-Heparin Compounds” (POLYMEDIX INC., priority 2010, published 2011)
